One may read the % inhibition as the drop in the measured response relative to a control, in per cent.

The target of this assay is T1, CXCR3 (Homo sapiens, UniProt P49682).
T1 construct: expressed in transfected cells; membrane preparation
T1 sequence (P49682 1-368): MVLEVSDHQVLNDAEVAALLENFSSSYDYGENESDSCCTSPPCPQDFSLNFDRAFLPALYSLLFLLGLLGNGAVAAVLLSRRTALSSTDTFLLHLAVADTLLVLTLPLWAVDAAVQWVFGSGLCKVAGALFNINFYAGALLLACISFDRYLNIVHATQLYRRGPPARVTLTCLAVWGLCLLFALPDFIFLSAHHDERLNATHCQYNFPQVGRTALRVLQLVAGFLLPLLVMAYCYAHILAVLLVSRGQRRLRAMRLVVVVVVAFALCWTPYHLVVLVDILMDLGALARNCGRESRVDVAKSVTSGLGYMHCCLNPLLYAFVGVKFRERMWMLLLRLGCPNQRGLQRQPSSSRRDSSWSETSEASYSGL
The experiment in a line: CXCR3/IP-10 radioligand binding assay (125I-IP-10 competition on CXCR3.L1/2 cell membranes). The conditions noted are these: test compound 10 μmol/L; 125I-labeled IP-10 0.05 to 0.2 nmol/L; CXCR3.L1/2 transfectant cell membranes; 60 min at room temperature. The source says: The activity of the compounds of the present invention can be assessed using a suitable assay, such as a receptor binding assay, a chemotaxis assays, an extracellular acidification assay or a calcium flux assay (see, for example, Hesselgesser et al., J. Biol. Chem. 273(25):15687-15692 (1998) and WO 98/02151). For example, as described herein, small organic molecule antagonists of CXCR3/IP-10 binding have been identified utilizing cells engineered to express recombinant human CXCR3 (CXCR3.L1/2) and which bind ^125I-IP10 and chemotax in response to IP-10, Mig or I-TAC. Specifically, a high through-put receptor binding assay, which monitors ^125I-IP10 binding to CXCR3.L1/2 cell membranes, was used to identify small molecule antagonists which block binding of IP-10, Mig or I-TAC to CXCR3.
CXCR3.L1/2 cells were pelleted by centrifugation and stored at −80° C.. The cells were lysed by thawing and resuspending at about 1.5×10^7 cells/ml in a hypotonic buffer (5 mmol/L HEPES (pH 7.2), 2 mmol/L EDTA, 10 μg/ml each leupeptin, aprotinin, and chymostatin, and 100 μg/ml PMSF (all from Sigma, St. Louis)). Nuclei and cellular debris was removed by centrifugation ([…], at 4° C.) for 10 min. The supernatant was transferred to chilled centrifuge tubes (Nalge, Rochester, N.Y.) and the membrane fraction was recovered by centrifugation (25,000 g at 4° C.) for 45 min. The membrane pellet was resuspended in freezing buffer (10 mM HEPES (pH 7.2), 300 mmol/L Sucrose, 5 μg/ml each of leupeptin, aprotinin, and chymostatin, and 10 μg/ml PMSF). The total protein concentration was determined using a coomassie blue staining protein concentration assay kit (BioRad). The membrane preparation was aliquoted and stored at −80° C. until time of use.
CXCR3/IP-10 binding was performed in 96-well polypropylene plates (Costar) in a final volume of 0.1 ml of HBB buffer (50 mmol/L Hepes pH 7.4, 1 mmol/L CaCl2, 5 mmol/L MgCl2, 0.02% sodium azide, 0.5% BSA (bovine serum albumin)) containing 1 to 5 μg of CXCR3.L1/2 transfectant cell membrane protein and 0.05 to 0.2 nmol/L ^125I-labeled IP-10 (NEN, Boston, Mass.). Competition binding experiments were performed by including variable concentrations of unlabeled IP-10 or test compound. Nonspecific binding was determined following the addition of a 250 nmol/L unlabelled IP-10. Samples were incubated for 60 min at room temperature, and bound and free tracer (^125I-IP10) were separated by filtration through 96-well GF/B filterplates (Packard) presoaked in 0.3% polyethyleneimine. The filters were washed in HBB further supplemented with 0.5 mol/L NaCl, dried, and the amount of bound radioactivity determined by liquid scintillation counting. The competition is presented as the percent specific binding as calculated by 100×[(S−B)/(T−B)], where S is the radioactivity bound for each sample, B is background binding, and T is total bound in the absence of competitors. Duplicates were used throughout the experiments.
Regarding “1-{2-(3-Piperidinomethylbenzylthio)ethyl}-3-(1-acenaphthenyl)-2imidazolidinylidenepropanedinitrile [Compound 4]”, the “% inhibition at 10 μmol/L” value is on record as 95%. Under “1-{2-(3-Piperidinomethylbenzylthio)ethyl}-3-(1-naphthoyl)-2-imidazolidinylidenepropanedinitrile [Compound 7]” stands 93%. Next, “1-{2-(3-Piperidinomethylbenzylthio)ethyl}-3-(2,3-methylenedioxybenzyl)-2-imidazolidinylidenepropanedinitrile [Compound 6]”: 84%. For “1-{2-(3-Piperidinomethylbenzylthio)ethyl}-3-{1-(8-methylnaphthyl)methyl}-2-imidazolidinylidenepropanedinitrile [Compound 11]”, the “% inhibition at 10 μmol/L” value was 96%.

Turning to `N#CC(C#N)=C1N(CCSCc2cccc(CN3CCCCC3)c2)CCN1Cc1cccc2ccccc12` [Compound 1, 1-{2-(3-Piperidinomethylbenzylthio)ethyl}-3-(1-naphthylmethyl)-2-imidazolidinylidenepropanedinitrile], the “% inhibition at 10 μmol/L” value is listed as 108%.

For `N#CC(C#N)=C1N(CCSCc2ccc(CN3CCCCC3)cc2)CCN1Cc1cccc2ccccc12` [Compound 2, 1-{2-(4-Piperidinomethylbenzylthio)ethyl}-3-(1-naphthylmethyl)-2-imidazolidinylidenepropanedinitrile], the “% inhibition at 10 μmol/L” value was determined as 94%.

On to `Cc1cccc(CN2CCN(CCSCc3cccc(CN4CCCCC4)c3)C2=C(C#N)C#N)c1C` [Compound 3, 1-{2-(3-Piperidinomethylbenzylthio)ethyl}-3-(2,3-dimethylbenzyl)-2-imidazolidinylidenepropanedinitrile], for which the “% inhibition at 10 μmol/L” value was found to be 91%. Under `N#CC(C#N)=C1N(CCCc2ccccc2)CCN1CCSCc1cccc(CN2CCCCC2)c1` [Compound 10, 1-{2-(3-Piperidinomethylbenzylthio)ethyl}-3-(3-phenylpropyl)-2-imidazolidinylidenepropanedinitrile] stands 86%.
